# Several values for one entry are separate records, joined by “and”; a condition that tells them apart may be missing. Equal values may be shown once. Entries after “also recorded” stand apart in the source; their conditions may differ. Read-outs that look alike come from different tables or passages of the source.
# Columns and labels:
# [1] = test system: M. tuberculosis H37Rv mc^2 6206; format: cell-based, Mycobacterium tuberculosis; conditions: for NADH/NAD+ ratio: Low (≤ 62.5 µM) 2B8
# M. smegmatis IMVs [2] = assay: Determination of ΔpH collapse with IMVs (ACMA); conditions: for ΔpH collapse: Acute (≤ 2 h)
# [3] = test system: M. tuberculosis mc^2 6206; format: cell-based, Mycobacterium tuberculosis; conditions: for Concentration up to which OCR increased (levelling off): stepwise increments
# M. smegmatis IMVs [4] = assay: NADH oxidation by IMVs; format: biochemical
# M. tuberculosis [5] = assay: Quantification of intracellular ATP
# M. tuberculosis [6] = assay: β-lactam potentiation assay; format: cell-based, Mycobacterium tuberculosis
# M. tuberculosis [7] = assay: Kinetic measurement of alamarBlue reduction; format: cell-based, Mycobacterium tuberculosis
# M. smegmatis IMVs [8] = assay: ETC activity assay with IMVs (INT reduction); format: biochemical
# M. smegmatis [9] = assay: Determination of Δψ collapse by DisC3(5); format: cell-based; conditions: for Δψ collapse: Acute (≤ 2 h)
# M. tuberculosis [10] = assay: microbe, parasite or virus in culture; format: cell-based, Mycobacterium tuberculosis
# M. smegmatis [11] = assay: MIC against M. smegmatis; format: cell-based
# M. smegmatis [12] = assay: Kinetic measurement of alamarBlue reduction
# M. tuberculosis [13] = test system: M. tuberculosis; parameters: method as in PMID 28749949; conditions: cited from earlier work
# M. smegmatis IMVs [14] = format: biochemical
# [15] = test system: mycobacterial cell membrane; conditions: prolonged incubation (24 h); cited from earlier work
# [16] = M. tuberculosis, stepwise increasing concentration, media without BSA
# [17] = M. tuberculosis, compound at 50% of its MIC, MIC of β-lactam / MIC of β-lactam plus drug
# [18] = High (> 62.5 µM) 2B8, Acute (≤ 2 h)
# [19] = Low (≤ 62.5 µM) 2B8, Acute (≤ 2 h)
# [20] = Low (≤ 62.5 µM) 2B8, Delayed (> 2 h)
compound,measurement,setting,value
"COc1nc2ccc(Br)cc2cc1[C@@H](c1ccccc1)[C@@](O)(CCN(C)C)c1cccc2ccccc12 [BDQ, bedaquiline, reference compound]",NADH/NAD^+ ratio,[1],increased
same,NADH/NAD+ ratio (summary),[1]; Table S2 summary,Intermediate ↑
same,ΔpH collapse (summary),M. smegmatis IMVs [2]; Table S2 summary,Intermediate
same,Effect on oxygen consumption rate (OCR),[3]; [16],significantly increased M. tuberculosis OCR
same,Concentration up to which OCR increased (levelling off),[3]; M. tuberculosis,9 µM
same,Effect on NADH oxidation (fluorescence decay 340ex/460em),M. smegmatis IMVs [4],inhibited
same,NADH oxidation (summary),M. smegmatis IMVs [4]; Table S2 summary,Intermediate ↓
same,[ATP]i (summary),M. tuberculosis [5]; Table S2 summary,S t r o ng ↓
same,Fold potentiation of Carbenicillin,M. tuberculosis [6]; [17],4x
same,Fold potentiation of Meropenem,M. tuberculosis [6]; [17],4x
same,β-lactam potentiation (summary),M. tuberculosis [6]; Table S2 summary,Weak ↑
same,alamarBlue reduction (summary),"M. tuberculosis [7]; Table S2 summary, mycobacteria",N o effect
same,ETC activity (summary),M. smegmatis IMVs [8]; Table S2 summary,N o effect
same,Δψ collapse (summary),M. smegmatis [9]; Table S2 summary,N o effect
same,MIC,"M. tuberculosis [10]; Mycobacterium tuberculosis, M. tuberculosis, read-out: MIC (MIC95)",0.125 µM
CCCCCCCCCCCCCNC(=O)CCCc1cnc(N)[nH]1 [RA13],NADH/NAD+ ratio (summary),[1],N o effect
same,NADH/NAD^+ ratio,[1],inactive
same,ΔpH collapse (summary),M. smegmatis IMVs [2],Weak
same,Effect on oxygen consumption rate (OCR),[3],minimal changes in OCR
same,O2 consumption rate (summary),[3],Weak ↑
same,Effect on NADH oxidation (fluorescence decay 340ex/460em),M. smegmatis IMVs [4],did not have any effect
same,NADH oxidation (summary),M. smegmatis IMVs [4],N o effect
same,MIC,M. smegmatis [11],> 1000 µM
same,[ATP]i (summary),M. tuberculosis [5],N o effect
same,Fold potentiation of Carbenicillin,M. tuberculosis [6],1.5x
same,Fold potentiation of Meropenem,M. tuberculosis [6],2x
same,β-lactam potentiation (summary),M. tuberculosis [6],M a r g in a l ↑
same,alamarBlue reduction,M. tuberculosis [7],did not have an effect
same,alamarBlue reduction (summary),M. tuberculosis [7],N o effect
same,ETC activity (INT reduction at 490 nm),M. smegmatis IMVs [8],only affected INT reduction in the presence of both substrates
same,ETC activity (summary),M. smegmatis IMVs [8],Weak ↓
same,alamarBlue reduction,M. smegmatis [12],did not have an effect
same,"Effect on Δψ (membrane potential), DiSC3(5) fluorescence reversal",M. smegmatis [9],no effect
same,Δψ collapse (summary),M. smegmatis [9],N o effect
same,MIC,M. tuberculosis [10],> 1000 µM
C[C@@H](O)[C@H]1C(=O)N2C(C(=O)O)=C(S[C@@H]3CN[C@H](C(=O)N(C)C)C3)[C@H](C)[C@H]12 [Meropenem],MIC (MIC95),M. tuberculosis [13],8 µg/mL
"CSc1ccc2c(c1)N(CCC1CCCCN1C)c1ccccc1S2 (stereo not shown) [TRZ, thioridazine, reference compound]",NADH/NAD+ ratio (summary),[1],S t r o ng ↑
same,NADH/NAD^+ ratio,[1],increased
same,ΔpH collapse (summary),M. smegmatis IMVs [2]; Table S2 summary,S t r o ng
same,Effect on oxygen consumption rate (OCR),[3],significantly increased M. tuberculosis OCR
same,Effect on NADH oxidation (fluorescence decay 340ex/460em),M. smegmatis IMVs [4],significantly slowed down
same,NADH oxidation (summary),M. smegmatis IMVs [4]; Table S2 summary,S t r o ng ↓
same,[ATP]i (summary),M. tuberculosis [5]; Table S2 summary,S t r o ng ↓
same,Fold potentiation of Carbenicillin,M. tuberculosis [6],16x
same,Fold potentiation of Meropenem,M. tuberculosis [6],32x
same,β-lactam potentiation (summary),M. tuberculosis [6]; Table S2 summary,Intermediate ↑
same,alamarBlue reduction (summary),"M. tuberculosis [7]; Table S2 summary, mycobacteria",S t r o ng ↓
same,Restoration of inhibited NADH oxidation by CFZ,M. smegmatis IMVs [14],not altered by CFZ
same,Rescue by CFZ (summary),M. smegmatis IMVs [14]; Table S2 summary,No
same,ETC activity (INT reduction at 490 nm),M. smegmatis IMVs [8],none and potent and intermediate
same,ETC activity (summary),M. smegmatis IMVs [8]; Table S2 summary,S t r o ng ↓
same,Δψ collapse (summary),M. smegmatis [9]; Table S2 summary,Intermediate
same,MIC,"M. tuberculosis [10]; Mycobacterium tuberculosis, read-out: MIC (MIC95)",62.5 µM
CCCCCCC(CCCCCC)NC(=O)CCCc1cnc(N)[nH]1 [2B8],MIC (MIC95),M. tuberculosis [13],250 µM
same,NADH/NAD^+ ratio,[1],significantly increased; also recorded: persisted
same,NADH/NAD+ ratio,[1]; Acute (≤ 2 h),N o effect- ↑
same,NADH/NAD+ ratio,[1]; Delayed (> 2 h),N o effect- ↑
same,NADH/NAD+ ratio (summary),[1]; Table S2 summary,S t r o ng ↑
same,"Effect on ΔpH, ACMA fluorescence reversal",M. smegmatis IMVs [2],collapsed the ΔpH
same,ΔpH collapse,M. smegmatis IMVs [2]; High (> 62.5 µM) 2B8,S t r o ng
same,ΔpH collapse,M. smegmatis IMVs [2]; Low (≤ 62.5 µM) 2B8,Low- Strong
same,ΔpH collapse (summary),M. smegmatis IMVs [2]; Table S2 summary,S t r o ng
same,O2 consumption rate,[3]; [18],↓ to basal
same,Concentration required to decrease OCR,[3]; M. tuberculosis,≥ 93 µM
same,OCR versus basal OCR,"[3]; M. tuberculosis, 250 µM 2B8 (highest tested concentration)",no statistical difference
same,Effect on oxygen consumption rate (OCR),[3]; [16],OCR increased
same,Concentration up to which OCR increased (levelling off),[3]; M. tuberculosis,62.5 µM
same,O2 consumption rate (summary),[3]; Table S2 summary,↑ t he n ↓
same,Effect on NADH oxidation (fluorescence decay 340ex/460em),M. smegmatis IMVs [4],significantly inhibited
same,NADH oxidation,M. smegmatis IMVs [4]; [19],N o effect
same,Concentration at which NADH oxidation is significantly inhibited,M. smegmatis IMVs [4]; M. smegmatis IMVs,greater than 62.5 µM
same,NADH oxidation (summary),M. smegmatis IMVs [4]; Table S2 summary,S t r o ng ↓
same,MIC,"M. smegmatis [11]; M. smegmatis, +0.5% BSA",125 to 250 µM
same,MIC,"M. smegmatis [11]; M. smegmatis, No BSA",62.5 µM
same,[ATP]i,M. tuberculosis [5]; [18],N o effect
same,[ATP]i,M. tuberculosis [5]; [19],N o effect
same,[ATP]i,M. tuberculosis [5]; [20],N o effect- ↓
same,[ATP]i (summary),M. tuberculosis [5]; Table S2 summary,S t r o ng ↓
same,Fold potentiation of Carbenicillin,M. tuberculosis [6]; [17],64x
same,Fold potentiation of Meropenem,M. tuberculosis [6]; [17],64x
same,β-lactam potentiation (summary),M. tuberculosis [6]; Table S2 summary,S t r o ng ↑
same,alamarBlue reduction,M. tuberculosis [7],inhibited
same,alamarBlue reduction,M. tuberculosis [7]; [20],N o effect
same,alamarBlue reduction,"M. tuberculosis [7]; M. tuberculosis, 2B8 62.5 µM",not
same,alamarBlue reduction (summary),"M. tuberculosis [7]; Table S2 summary, mycobacteria",S t r o ng ↓
same,Restoration of inhibited NADH oxidation by CFZ,"M. smegmatis IMVs [14]; M. smegmatis IMVs treated with 5 mM KCN, 80 µM TRZ or 125 µM 2B8, 42 µM CFZ added",also restored by CFZ
same,Rescue by CFZ (summary),M. smegmatis IMVs [14]; Table S2 summary,Partial
same,ETC activity (INT reduction at 490 nm),M. smegmatis IMVs [8],potently inhibited
same,ETC activity,M. smegmatis IMVs [8]; [19],N o effect
same,Concentration with inhibitory effect on the ETC,M. smegmatis IMVs [8]; M. smegmatis IMVs,≥ 78 µM
same,ETC activity (summary),M. smegmatis IMVs [8]; Table S2 summary,S t r o ng ↓
same,alamarBlue reduction,M. smegmatis [12],inhibited
same,Concentration causing catastrophic cell membrane disruption,[15],≥ 125 µM
same,"Effect on Δψ (membrane potential), DiSC3(5) fluorescence reversal",M. smegmatis [9],rapidly depolarized the membrane potential
same,Δψ collapse,M. smegmatis [9]; High (> 62.5 µM) 2B8,S t r o ng
same,Δψ collapse,M. smegmatis [9]; Low (≤ 62.5 µM) 2B8,S t r o ng
same,Δψ collapse (summary),M. smegmatis [9]; Table S2 summary,S t r o ng
same,MIC,M. tuberculosis [10],250 to 500 µM and 250 µM
"carbonyl cyanide m-chlorophenyl hydrazine [CCCP, reference compound]",NADH/NAD+ ratio (summary),[1],N o effect
same,NADH/NAD^+ ratio,[1],did not increase
same,ΔpH collapse (summary),M. smegmatis IMVs [2],Intermediate
same,Effect on oxygen consumption rate (OCR),[3],"bell-shaped, dose-response effect"
same,O2 consumption rate (summary),[3],↑ t he n ↓
same,Effect on NADH oxidation (fluorescence decay 340ex/460em),M. smegmatis IMVs [4],tendency to accelerate NADH oxidation
same,NADH oxidation (summary),M. smegmatis IMVs [4],Weak ↑
same,[ATP]i (summary),M. tuberculosis [5],Intermediate ↓
same,Fold potentiation of Carbenicillin,M. tuberculosis [6],9.6x
same,Fold potentiation of Meropenem,M. tuberculosis [6],16x
same,β-lactam potentiation (summary),M. tuberculosis [6],Intermediate ↑
same,alamarBlue reduction,M. tuberculosis [7],inhibited
same,alamarBlue reduction (summary),M. tuberculosis [7],Weak ↓
same,Rescue by CFZ (summary),M. smegmatis IMVs [14],N o effect
same,ETC activity (INT reduction at 490 nm),M. smegmatis IMVs [8],tendency to increase ETC activity
same,ETC activity (summary),M. smegmatis IMVs [8],Weak ↑
same,alamarBlue reduction,M. smegmatis [12],inhibited
same,Δψ collapse (summary),M. smegmatis [9],S t r o ng
same,MIC,M. tuberculosis [10]; read-out: MIC (MIC95),20 µM
CC1(C)S[C@@H]2[C@H](NC(=O)C(C(=O)O)c3ccccc3)C(=O)N2[C@H]1C(=O)O (stereo partly shown) [Carbenicillin],MIC (MIC95),M. tuberculosis [13],1000 µg/mL

# Source: article PMC6365497, “2-aminoimidazoles collapse mycobacterial proton motive force and block the electron transport chain” (Scientific Reports, 2019)
